Test results: patent publication US20110003012A1, “TREATING PATIENTS WITH SUBARACHNOID HEMORRHAGE” (Duke University, priority 2007, published 2011)
Like-named read-outs stand apart in the source and are kept apart here.

Experiments:
[1] = test system: vasospasm; conditions: cited from earlier work
[2] = test system: subarachnoid hemorrhage; conditions: human, in vivo
[3] = test system: hemoglobin; test: S-nitrosylation of hemoglobin / blood NO after 3 days exposure to ENO (FIG. 5); type: in vivo; conditions: 3 days exposure to 20 ppm ENO
[4] = Blood pressure with or without ENO inhalation in normal mice; conditions: inhalation of 20 ppm, n=5 each group
[5] = test system: subarachnoid hemorrhage induced vasospasm; test: Intraluminal filament-induced SAH in mice, ENO inhalation for 3 days (Background Example 2)
[6] = test system: subarachnoid hemorrhage; test: Laser Doppler blood flow in MCA territory and blood pressure 7 days after SAH (Background Example 3); type: in vivo; conditions: mice 7 days after SAH
Protocol: Mice were subjected to subarachnoid hemorrhage induced by filament perforation of the right middle cerebral artery (MCA). Mice were allowed to recover for 7 days. The mice were then anesthetized and a laser Doppler flow probe was positioned over the brain within the territory perfused by the MCA and blood pressure was recorded. The animals were allowed to stabilize for 30 minutes (time=1-30 min).

[7] = SAH mice, 20 ppm ENO inhalation 3 days, p<0.01
[8] = inhalation at 20 ppm for 3 days

O=NO [sodium nitrite]
Vasospasm compared to control ([1]; both regimens: low dose infusion plus bolus, or higher dose infusion without bolus): reduced vasospasm
Vasospasm reduced to ([1]; higher dose infusion, no bolus, two of three cases): 20%
Transient blood pressure reduction ([1]; lower dose infusion over 24 hours plus bolus, after bolus): more than 15%

CCCCON=O [butyl nitrite]
Cerebral infarction ([2]; iv): prevented
Mean arterial blood pressure reduction ([2]; iv): ≤ 10%
Vasospasm ([2]; iv): does not occur

CCON=O [ENO, ethyl nitrite]
Red blood cell lysate nitrosothiol (SNO) increase ([3]; FIG. 5A): approximately 4 fold
Total red blood cell NO ([3]; FIG. 5B): increase
Change in serum total NO ([3]; FIG. 5C): negligible
Change in blood pressure [4]: did not cause a change
Rotarod performance ([5]; 3 days post-SAH, inhalation of 20 ppm, p=0.06): a trend for improvement
Arterial narrowing (large vessel spasm) [5, 7]: improved
Decreased forebrain ROD (small vessel spasm) [5, 7]: improved
Subarachnoid hemorrhage induced vasospasm [5, 8]: attenuated
Systemic hypotension [5, 8]: without causing systemic hypotension
Effect in sham surgery mice ([5]; sham surgery, 20 ppm inhalation, n=5 each group, p=0.9): no effect
Mean arterial pressure ([6]; 20 ppm ENO added to inspiratory gas): remained unchanged
Blood flow increase (laser Doppler, MCA territory) ([6]; onset of 20 ppm ENO): 25%
Cerebral infarction [2]: prevented
Vasospasm [2]: does not occur
